What follows are compounds tested against T1, mTOR (Homo sapiens, UniProt P42345) (assay: In Vitro mTOR Kinase Assay (Echo), Test (a)(ii)). Conditions: table of enzyme assay Test (a)(ii); read-out: Test (a)(ii) IC50.
T1 construct: FLAG; made in house
Assay type: biochemical
In short: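 AlphaScreen read-out: biotinylated substrate phosphorylation was detected with anti-p70 S6K (T389) 1A5 antibody, Protein A acceptor and streptavidin donor beads after overnight dark incubation at room temperature. Enzyme was FLAG-mTOR 1362-2549 from stable HEK293 cells.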

T1 sequence (P42345 1362-2549): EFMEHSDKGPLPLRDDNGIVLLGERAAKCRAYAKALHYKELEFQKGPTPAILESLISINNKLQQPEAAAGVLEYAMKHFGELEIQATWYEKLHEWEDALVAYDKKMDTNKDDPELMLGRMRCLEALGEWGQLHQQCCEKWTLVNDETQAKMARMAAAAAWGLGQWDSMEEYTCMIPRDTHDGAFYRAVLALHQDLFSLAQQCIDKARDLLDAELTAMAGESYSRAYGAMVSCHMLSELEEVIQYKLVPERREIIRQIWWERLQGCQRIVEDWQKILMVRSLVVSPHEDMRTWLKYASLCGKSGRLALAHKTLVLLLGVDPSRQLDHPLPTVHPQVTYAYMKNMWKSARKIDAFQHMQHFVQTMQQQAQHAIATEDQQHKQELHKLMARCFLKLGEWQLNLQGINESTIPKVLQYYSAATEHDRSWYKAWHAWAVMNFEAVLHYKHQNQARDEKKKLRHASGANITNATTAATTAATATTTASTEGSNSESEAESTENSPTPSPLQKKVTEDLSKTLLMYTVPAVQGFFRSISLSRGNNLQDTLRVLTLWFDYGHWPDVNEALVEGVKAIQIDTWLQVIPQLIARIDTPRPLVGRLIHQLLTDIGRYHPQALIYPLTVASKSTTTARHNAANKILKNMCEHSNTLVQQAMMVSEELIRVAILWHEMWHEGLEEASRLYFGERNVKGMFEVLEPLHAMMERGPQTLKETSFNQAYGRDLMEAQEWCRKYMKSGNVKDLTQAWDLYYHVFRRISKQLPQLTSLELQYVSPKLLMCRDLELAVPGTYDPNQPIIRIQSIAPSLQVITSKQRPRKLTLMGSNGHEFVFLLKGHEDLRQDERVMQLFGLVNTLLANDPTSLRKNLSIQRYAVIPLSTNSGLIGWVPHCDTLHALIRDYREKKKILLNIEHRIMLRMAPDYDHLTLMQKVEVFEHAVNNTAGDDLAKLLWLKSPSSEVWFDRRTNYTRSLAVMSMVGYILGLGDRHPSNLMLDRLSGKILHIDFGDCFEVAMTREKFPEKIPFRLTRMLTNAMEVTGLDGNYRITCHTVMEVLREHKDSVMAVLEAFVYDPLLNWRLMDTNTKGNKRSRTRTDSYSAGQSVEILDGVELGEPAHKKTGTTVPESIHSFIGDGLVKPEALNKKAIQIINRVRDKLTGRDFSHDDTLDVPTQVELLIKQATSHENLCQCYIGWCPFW

SMILES | IC50 [nM]
CNC(=O)Nc1ccc(-c2nc(N3CCOC[C@@H]3C)cc(C3(S(=O)(=O)c4ccc(F)cc4C)CC3)n2)cc1 [Example 82, 1-[4-[4-[1-(4-Fluoro-2-methylphenyl)sulfonylcyclopropyl]-6-[(3S)-3-methylmorpholin-4-yl]pyrimidin-2-yl]phenyl]-3-methylurea] | 9.39
Cc1cc(F)ccc1S(=O)(=O)C1(c2cc(N3CCOC[C@@H]3C)nc(-c3ccc(NC(=O)NC4CC4)cc3)n2)CC1 [Example 82a, 3-cyclopropyl-1-[4-[4-[1-(4-fluoro-2-methylphenyl)sulfonylcyclopropyl]-6-[(3S)-3-methylmorpholin-4-yl]pyrimidin-2-yl]phenyl]urea] | 26.5
Cc1cc(F)ccc1S(=O)(=O)C1(c2cc(N3CCOC[C@@H]3C)nc(-c3ccc(NC(=O)NCCO)cc3)n2)CC1 [Example 82b, 1-[4-[4-[1-(4-fluoro-2-methylphenyl)sulfonylcyclopropyl]-6-[(3S)-3-methylmorpholin-4-yl]pyrimidin-2-yl]phenyl]-3-(2-hydroxyethyl)urea] | 7.57
Cc1cc(F)ccc1S(=O)(=O)C1(c2cc(N3CCOC[C@@H]3C)nc(-c3ccc(NC(=O)NCCF)cc3)n2)CC1 [Example 82c, 3-(2-fluoroethyl)-1-[4-[4-[1-(4-fluoro-2-methylphenyl)sulfonylcyclopropyl]-6-[(3S)-3-methylmorpholin-4-yl]pyrimidin-2-yl]phenyl]urea] | 18.5
Cc1cc(F)ccc1S(=O)(=O)C1(c2cc(N3CCOC[C@@H]3C)nc(-c3ccc(NC(=O)NCC(F)F)cc3)n2)CC1 [Example 82d, 3-(2,2-difluoroethyl)-1-[4-[4-[1-(4-fluoro-2-methylphenyl)sulfonylcyclopropyl]-6-[(3S)-3-methylmorpholin-4-yl]pyrimidin-2-yl]phenyl]urea] | 24.3
CCNC(=O)Nc1ccc(-c2nc(N3CCOC[C@@H]3C)cc(C3(S(=O)(=O)c4ccc(F)cc4C)CC3)n2)cc1 [Example 82e, 3-ethyl-1-[4-[4-[1-(4-fluoro-2-methylphenyl)sulfonylcyclopropyl]-6-[(3S)-3-methylmorpholin-4-yl]pyrimidin-2-yl]phenyl]urea] | 20.8
Cc1cc(F)ccc1S(=O)(=O)C1(c2cc(N3CCOC[C@@H]3C)nc(-c3ccc(NC(=O)Nc4cnn(C)c4)cc3)n2)CC1 [Example 82f, 1-[4-[4-[1-(4-fluoro-2-methylphenyl)sulfonylcyclopropyl]-6-[(3S)-3-methylmorpholin-4-yl]pyrimidin-2-yl]phenyl]-3-(1-methylpyrazol-4-yl)urea] | 27.3
C[C@H]1COCCN1c1cc(C2(S(=O)(=O)c3ccncc3)CCC2)nc(-c2ccc(NC(=O)NCCO)cc2)n1 [Example 83, 3-(2-Hydroxyethyl)-1-[4-[4-[(3S)-3-methylmorpholin-4-yl]-6-(1-pyridin-4-ylsulfonylcyclobutyl)pyrimidin-2-yl]phenyl]urea] | 3.46
C[C@@H](CO)NC(=O)Nc1ccc(-c2nc(N3CCOC[C@@H]3C)cc(C3(S(=O)(=O)c4ccncc4)CCC3)n2)cc1 [Example 83a, 3-[(2S)-1-hydroxypropan-2-yl]-1-[4-[4-[(3S)-3-methylmorpholin-4-yl]-6-(1-pyridin-4-ylsulfonylcyclobutyl)pyrimidin-2-yl]phenyl]urea] | 4.83
C[C@H](CO)NC(=O)Nc1ccc(-c2nc(N3CCOC[C@@H]3C)cc(C3(S(=O)(=O)c4ccncc4)CCC3)n2)cc1 [Example 83b, 3-[(2R)-1-hydroxypropan-2-yl]-1-[4-[4-[(3S)-3-methylmorpholin-4-yl]-6-(1-pyridin-4-ylsulfonylcyclobutyl)pyrimidin-2-yl]phenyl]urea] | 11.4
C[C@H]1COCCN1c1cc(C2(S(=O)(=O)c3ccncc3)CCC2)nc(-c2ccc(NC(=O)NC(C)(C)CO)cc2)n1 [Example 83c, 3-(1-hydroxy-2-methylpropan-2-yl)-1-[4-[4-[(3S)-3-methylmorpholin-4-yl]-6-(1-pyridin-4-ylsulfonylcyclobutyl)pyrimidin-2-yl]phenyl]urea] | 12.4
C[C@H]1COCCN1c1cc(C2(S(=O)(=O)c3ccncc3)CCC2)nc(-c2ccc(NC(=O)NCc3ncc[nH]3)cc2)n1 [Example 83d, 3-(1H-imidazol-2-ylmethyl)-1-[4-[4-[(3S)-3-methylmorpholin-4-yl]-6-(1-pyridin-4-ylsulfonylcyclobutyl)pyrimidin-2-yl]phenyl]urea] | 47.2
CC[C@H]1COCCN1c1cc(C2(S(C)(=O)=O)CC2)nc(-c2ccc(NC(=O)NC)cc2)n1 [Example 84, 1-[4-[4-[(3S)-3-Ethylmorpholin-4-yl]-6-(1-methylsulfonylcyclopropyl)pyrimidin-2-yl]phenyl]-3-methylurea] | 9.56
CC[C@H]1COCCN1c1cc(C2(S(C)(=O)=O)CC2)nc(-c2ccc(NC(=O)NC3CC3)cc2)n1 [Example 84a, 3-cyclopropyl-1-[4-[4-[(3S)-3-ethylmorpholin-4-yl]-6-(1-methylsulfonylcyclopropyl)pyrimidin-2-yl]phenyl]urea] | 9.09
CC[C@H]1COCCN1c1cc(C2(S(C)(=O)=O)CC2)nc(-c2ccc(NC(=O)NCCO)cc2)n1 [Example 84b, 1-[4-[4-[(3S)-3-ethylmorpholin-4-yl]-6-(1-methylsulfonylcyclopropyl)pyrimidin-2-yl]phenyl]-3-(2-hydroxyethyl)urea] | 3.85
CC[C@H]1COCCN1c1cc(C2(S(C)(=O)=O)CC2)nc(-c2ccc(NC(=O)NCCF)cc2)n1 [Example 84c, 1-[4-[4-[(3S)-3-ethylmorpholin-4-yl]-6-(1-methylsulfonylcyclopropyl)pyrimidin-2-yl]phenyl]-3-(2-fluoroethyl)urea] | 8.29
CC[C@H]1COCCN1c1cc(C2(S(C)(=O)=O)CC2)nc(-c2ccc(NC(=O)NCC(F)F)cc2)n1 [Example 84d, 3-(2,2-difluoroethyl)-1-[4-[4-[(3S)-3-ethylmorpholin-4-yl]-6-(1-methylsulfonylcyclopropyl)pyrimidin-2-yl]phenyl]urea] | 9.59
CCNC(=O)Nc1ccc(-c2nc(N3CCOC[C@@H]3CC)cc(C3(S(C)(=O)=O)CC3)n2)cc1 [Example 84e, 3-ethyl-1-[4-[4-[(3S)-3-ethylmorpholin-4-yl]-6-(1-methylsulfonylcyclopropyl)pyrimidin-2-yl]phenyl]urea] | 8.18
CC[C@H]1COCCN1c1cc(C2(S(C)(=O)=O)CC2)nc(-c2ccc(NC(=O)Nc3cnn(C)c3)cc2)n1 [Example 84f, 1-[4-[4-[(3S)-3-ethylmorpholin-4-yl]-6-(1-methylsulfonylcyclopropyl)pyrimidin-2-yl]phenyl]-3-(1-methylpyrazol-4-yl)urea] | 13.4
CNC(=O)Nc1ccc(-c2nc(N3CCOC[C@@H]3C)cc(C3(S(=O)(=O)c4ccc(C(N)=O)cc4Cl)CC3)n2)cc1 [Example 85, 3-Chloro-4-[1-[2-[4-(methylcarbamoylamino)phenyl]-6-[(3S)-3-methylmorpholin-4-yl]pyrimidin-4-yl]cyclopropyl]sulfonylbenzamide] | 4.77
CCNC(=O)Nc1ccc(-c2nc(N3CCOC[C@@H]3C)cc(C3(S(=O)(=O)c4ccc(C(N)=O)cc4Cl)CC3)n2)cc1 [Example 85a, 3-chloro-4-[1-[2-[4-(ethylcarbamoylamino)phenyl]-6-[(3S)-3-methylmorpholin-4-yl]pyrimidin-4-yl]cyclopropyl]sulfonylbenzamide] | 3.13
C[C@H]1COCCN1c1cc(C2(S(=O)(=O)c3ccc(C(N)=O)cc3Cl)CC2)nc(-c2ccc(NC(=O)NC3CC3)cc2)n1 [Example 85b, 3-chloro-4-[1-[2-[4-(cyclopropylcarbamoylamino)phenyl]-6-[(3S)-3-methylmorpholin-4-yl]pyrimidin-4-yl]cyclopropyl]sulfonylbenzamide] | 5.26
C[C@H]1COCCN1c1cc(C2(S(=O)(=O)c3ccc(C(N)=O)cc3Cl)CC2)nc(-c2ccc(NC(=O)NCCF)cc2)n1 [Example 85c, 3-chloro-4-[1-[2-[4-(2-fluoroethylcarbamoylamino)phenyl]-6-[(3S)-3-methylmorpholin-4-yl]pyrimidin-4-yl]cyclopropyl]sulfonylbenzamide] | 5.09
C[C@H]1COCCN1c1cc(C2(S(=O)(=O)c3ccc(C(N)=O)cc3Cl)CC2)nc(-c2ccc(NC(=O)NCCO)cc2)n1 [Example 85d, 3-chloro-4-[1-[2-[4-(2-hydroxyethylcarbamoylamino)phenyl]-6-[(3S)-3-methylmorpholin-4-yl]pyrimidin-4-yl]cyclopropyl]sulfonylbenzamide] | 3.23
CNC(=O)Nc1ccc(-c2nc(N3CCOC[C@@H]3C)cc(C3(S(=O)(=O)c4ccc(C#N)cc4Cl)CC3)n2)cc1 [Example 85e, 1-[4-[4-[1-(2-chloro-4-cyanophenyl)sulfonylcyclopropyl]-6-[(3S)-3-methylmorpholin-4-yl]pyrimidin-2-yl]phenyl]-3-methylurea] | 18.3
CCNC(=O)Nc1ccc(-c2nc(N3CCOC[C@@H]3C)cc(C3(S(=O)(=O)c4ccc(C#N)cc4Cl)CC3)n2)cc1 [Example 85f, 3-[4-[4-[1-(2-chloro-4-cyanophenyl)sulfonylcyclopropyl]-6-[(3S)-3-methylmorpholin-4-yl]pyrimidin-2-yl]phenyl]-1-ethylurea] | 20.2
C[C@H]1COCCN1c1cc(C2(S(=O)(=O)c3ccc(C#N)cc3Cl)CC2)nc(-c2ccc(NC(=O)NC3CC3)cc2)n1 [Example 85g, 1-[4-[4-[1-(2-chloro-4-cyanophenyl)sulfonylcyclopropyl]-6-[(3S)-3-methylmorpholin-4-yl]pyrimidin-2-yl]phenyl]-3-cyclopropylurea] | 25.9
C[C@H]1COCCN1c1cc(C2(S(=O)(=O)c3ccc(C#N)cc3Cl)CC2)nc(-c2ccc(NC(=O)NCC(F)F)cc2)n1 [Example 85h, 1-[4-[4-[1-(2-chloro-4-cyanophenyl)sulfonylcyclopropyl]-6-[(3S)-3-methylmorpholin-4-yl]pyrimidin-2-yl]phenyl]-3-(2,2-difluoroethyl)urea] | 42.6

Source: patent US20090018134A1, “Compounds - 945” (AstraZeneca AB, priority 2007, published 2009)
